≈ marks a conversion by molar mass, not a printed value. Counter-ions that a name gives are not always drawn.

This is an account of results in US8697742B2, “BCRP/ABCG2 inhibitor” (Kabushiki Kaisha Yakult Honsha, priority 2005, dated 2014).

The subject of the first assay is A549/SN-38-4 cells. Put plainly: Effect of overcoming SN-38 resistance of BCRP-expressing A549/SN-38-4 cells. Particulars: Homo sapiens, A549, 48 h, concentration for 50% reduction of relative SN-38 resistance value (IC50 A549/SN-38-4 / IC50 A549); 48 hours culture with SN-38; read-out: Effect of overcoming resistance EC50. Format: cell-based, human. The method, then: The human lung cancer A549 cells or the A549/SN-38-4 cells were suspended in a Ham's F-12 medium containing 10% FBS, 100 U/mL of penicillin, and 100 μg/mL of streptomycin (10% FBS/Ham's F-12), and the resultant suspension was inoculated into a 96-well microplate (2×10^3 cells/50 μL/well), followed by culturing at 5% CO2 and 37° C. overnight. […] After completion of culturing, the number of viable cells was counted by use of a viable cell counting reagent [TetraColor ONE (trademark), product of Seikagaku Corporation] according to the attached instruction manual. […] The greater the relative resistance value, the higher the level of acquired resistance.
Turning to `COc1ccc(/C(C#N)=C/c2ccc(N)s2)cc1OC` [Compound 3, (Z)-3-(5-amino-thiophen-2-yl)-2-(3,4-dimethoxy-phenyl)-acrylonitrile], the EC50 turned out to be 0.032 µg/mL (≈ 0.112 µM).

On to `COc1ccc2nc(Cl)c(/C=C(\C#N)c3ccc(OC)c(OC)c3)cc2c1` [Compound 73, (Z)-3-(2-chloro-6-methoxy-quinolin-3-yl)-2-(3,4-dimethoxy-phenyl)-acrylonitrile], for which the EC50 was 0.011 µg/mL (≈ 0.0289 µM). With `COc1ccc(/C=C(\C#N)c2nc3ccccc3s2)cc1OC` [Compound 74, (E)-2-benzothiazol-2-yl-3-(3,4-dimethoxy-phenyl)-acrylonitrile], the EC50 worked out at 0.021 µg/mL (≈ 0.0651 µM).

Take `COc1ccc(/C(C#N)=C/c2ccc3c(c2)CCO3)cc1OC` [Compound 75, (Z)-3-(2,3-dihydro-benzofuran-5-yl)-2-(3,4-dimethoxy-phenyl)-acrylonitrile]: the EC50 was 0.017 µg/mL (≈ 0.0553 µM).

With `COc1ccc(/C(C#N)=C/c2cc(-c3ccc(F)cc3)on2)cc1OC` [Compound 76, (Z)-2-(3,4-dimethoxy-phenyl)-3-[5-(4-fluoro-phenyl)-isoxazol-3-yl]-acrylonitrile], the EC50 was 0.002 µg/mL (≈ 0.00571 µM). Consider `COc1ccc(-c2cc(/C=C(\C#N)c3ccc(OC)c(OC)c3)no2)cc1` [Compound 77, (Z)-2-(3,4-dimethoxy-phenyl)-3-[5-(4-methoxy-phenyl)-isoxazol-3-yl]-acrylonitrile], for which the EC50 was 0.11 µg/mL (≈ 0.304 µM). Take `COc1ccc(/C(C#N)=C/c2ccc3ccccc3n2)cc1OC` [Compound 78, (Z)-2-(3,4-dimethoxy-phenyl)-3-quinolin-2-yl-acrylonitrile]: the EC50 was 0.077 µg/mL (≈ 0.243 µM). Take `COc1ccc2nc(Cl)c(/C=C(\C#N)c3ccccn3)cc2c1` [Compound 79, (Z)-3-(2-chloro-6-methoxy-quinolin-3-yl)-2-pyridin-2-yl-acrylonitrile]: the EC50 amounted to 0.006 µg/mL (≈ 0.0186 µM).

Turning to `COc1ccc2nc(Cl)c(/C=C(\C#N)c3cccnc3)cc2c1` [Compound 80, (Z)-3-(2-chloro-6-methoxy-quinolin-3-yl)-2-pyridin-3-yl-acrylonitrile], the EC50 stood at 0.019 µg/mL (≈ 0.059 µM).

Take `COc1ccc2nc(Cl)c(/C=C(\C#N)c3ccsc3)cc2c1` [Compound 82, (Z)-3-(2-chloro-6-methoxy-quinolin-3-yl)-2-thiophen-3-yl-acrylonitrile]: the EC50 is 0.078 µg/mL (≈ 0.239 µM).

Turning to `COc1ccc2nc(Cl)c(/C=C(\C#N)n3nnc4ccccc43)cc2c1` [Compound 83, (E)-2-benzotriazol-1-yl-3-(2-chloro-6-methoxy-quinolin-3-yl)-acrylonitrile], the EC50 stood at 0.19 µg/mL (≈ 0.525 µM).

For the compound `N#C/C(=C\c1ccnc2ccccc12)c1ccccn1` [Compound 85, (Z)-2-pyridin-2-yl-3-quinolin-4-yl-acrylonitrile], the EC50 was 0.23 µg/mL (≈ 0.894 µM). Turning to `N#C/C(=C\c1ccnc2ccccc12)c1cccnc1` [Compound 86, (Z)-2-pyridin-3-yl-3-quinolin-4-yl-acrylonitrile], the EC50 came to 0.12 µg/mL (≈ 0.466 µM). Still for that read-out and setting: as for `N#C/C(=C\c1ccnc2ccccc12)c1cccs1` [Compound 87, (E)-3-quinolin-4-yl-2-thiophen-2-yl-acrylonitrile], the figure is 0.046 µg/mL (≈ 0.175 µM); as for `N#C/C(=C\c1ccnc2ccccc12)c1ccsc1` [Compound 88, (Z)-3-quinolin-4-yl-2-thiophen-3-yl-acrylonitrile], 0.07 µg/mL (≈ 0.267 µM); as for `N#C/C(=C\c1csc2ccccc12)c1nc2ccccc2s1` [Compound 90, (E)-3-benzo[b]thiophen-3-yl-2-benzothiazol-2-yl-acrylonitrile], 0.46 µg/mL (≈ 1.44 µM).

As for `N#C/C(=C\c1cc2ccccc2o1)c1coc2ccccc12` [Compound 91, (Z)-3-benzofuran-2-yl-2-benzofuran-3-yl-acrylonitrile], the EC50 is 0.52 µg/mL (≈ 1.82 µM).

With `Cn1cc(/C=C(\C#N)c2nc3ccccc3s2)c2ccccc21` [Compound 92, (E)-2-benzothiazol-2-yl-3-(1-methyl-1H-indol-3-yl)-acrylonitrile], the EC50 was 0.041 µg/mL (≈ 0.13 µM). The same measure, in the same setting: then `COc1ccc(/C(C#N)=C/c2c3ccccc3c(Cl)c3ccccc23)cc1OC` [Compound 93, (Z)-3-(10-chloro-anthracen-9-yl)-2-(3,4-dimethoxy-phenyl)-acrylonitrile], with 0.28 µg/mL (≈ 0.7 µM); and `CCN(CC)CC(=O)OC1CCN(c2ccc(/C=C(\C#N)c3ccc(OC)c(OC)c3)s2)CC1.Cc1ccc(S(=O)(=O)O)cc1` [Compound 96, 1-[5-[(Z)-2-cyano-2-(3,4-dimethoxy-phenyl)-vinyl]-thiophen-2-yl]-piperidin-4-yl diethylamino-acetate p-toluenesulfonate], with 0.12 µg/mL; and `CCN(CC)C(=O)OC1CCN(c2ccc(/C=C(\C#N)c3ccc(OC)c(OC)c3)s2)CC1` [Compound 97, 1-[5-[(Z)-2-cyano-2-(3,4-dimethoxy-phenyl)-vinyl]-thiophen-2-yl]-piperidin-4-yl diethyl-carbamate], with 0.078 µg/mL (≈ 0.166 µM). As to `CCN(CC)CCN(C)C(=O)CCC(=O)OC1CCN(c2ccc(/C=C(\C#N)c3ccc(OC)c(OC)c3)s2)CC1` [Compound 98, 1-[5-[(Z)-2-cyano-2-(3,4-dimethoxy-phenyl)-vinyl]-thiophen-2-yl]-piperidin-4-yl N-(2-diethylamino-ethyl)-N-methyl-succinamate hydrochloride], the EC50 was determined as 0.1 µg/mL. Regarding `CCN(CC)c1ccc(NC(=O)CCC(=O)OC2CCN(c3ccc(/C=C(\C#N)c4ccc(OC)c(OC)c4)s3)CC2)cc1` [Compound 99, 1-[5-[(Z)-2-cyano-2-(3,4-dimethoxy-phenyl)-vinyl]-thiophen-2-yl]-piperidin-4-yl N-(4-diethylamino-phenyl)-succinamate], the EC50 turned out to be 0.063 µg/mL (≈ 0.102 µM).

Regarding `COc1ccc(/C(C#N)=C/c2ccc(N3CCN(CCO)CC3)s2)cc1OC.O=S(=O)(O)O` [Compound 101, (Z)-2-(3,4-dimethoxy-phenyl)-3-{5-[4-(2-hydroxy-ethyl)-piperazin-1-yl]-thiophen-2-yl}-acrylonitrile sulfate], the EC50 came to 0.013 µg/mL.

The assay is the same for the next values; noted with them: Homo sapiens, A549, 48 h, read-out: Effect of overcoming resistance EC50, concentration for 50% reduction of relative SN-38 resistance value (IC50 A549/SN-38-4 / IC50 A549); 48 hours culture with SN-38.
Take `COc1ccc(/C(C#N)=C/c2cc3ccccc3c3ccccc23)cc1OC` [Compound 95, (Z)-2-(3,4-dimethoxy-phenyl)-3-phenanthren-9-yl-acrylonitrile]: the EC50 was 0.008 µg/mL (≈ 0.0219 µM).

Still in this assay, the particulars now being: concentration for 50% reduction of relative SN-38 resistance value (IC50 A549/SN-38-4 / IC50 A549); 48 hours culture with SN-38.
As for `COc1ccc(/C(C#N)=C/c2ccc(N3CCCCC3)s2)cc1OC` [Compound 4, (Z)-2-(3,4-dimethoxy-phenyl)-3-(5-piperidin-1-yl-thiophen-2-yl)-acrylonitrile], the “Effect of overcoming resistance EC50” value is 0.012 µg/mL. In the case of `COc1ccc(/C=C(\C#N)c2coc3ccccc23)cc1OC` [Compound 72, (Z)-2-benzofuran-3-yl-3-(3,4-dimethoxy-phenyl)-acrylonitrile], the “Effect of overcoming resistance EC50” value was found to be 0.011 µg/mL.

In the case of `COc1ccc(/C(C#N)=C/c2ccc(N3CCN(CCO)CC3)s2)cc1OC.COc1ccc(/C(C#N)=C/c2ccc(N3CCN(CCO)CC3)s2)cc1OC.O=S(=O)(O)O` [Compound 100, (Z)-2-(3,4-dimethoxy-phenyl)-3-{5-[4-(2-hydroxy-ethyl)-piperazin-1-yl]-thiophen-2-yl}-acrylonitrile ½ sulfate], the “Effect of overcoming resistance EC50” value is 0.012 µg/mL. As to “(E)-2-benzothiazol-1-yl-3-(3,4-dimethoxy-phenyl)-acrylonitrile [Compound 71]”, the “Effect of overcoming resistance EC50” value was 0.013 µg/mL.

Staying with this assay, now noted: concentration for 50% reduction of relative SN-38 resistance value (IC50 A549/SN-38-4 / IC50 A549); 48 hours culture with SN-38; nitrate.
As for `COc1ccc(/C(C#N)=C/c2ccc(N3CCN(CCO)CC3)s2)cc1OC` [Compound 102, (Z)-2-(3,4-dimethoxy-phenyl)-3-{5-[4-(2-hydroxy-ethyl)-piperazin-1-yl]-thiophen-2-yl}-acrylonitrile nitrate], the “Effect of overcoming resistance EC50” value came to 0.017 µg/mL.

The subject of a further assay is K562/MDR cells. Put plainly: Effect on paclitaxel (multidrug) resistance of human MDR1 gene-transduced K562 cells. Format: cell-based. As to conditions: Homo sapiens; concentration for 50% reduction of relative paclitaxel resistance value; K562/MDR vs K562; 72 hours; read-out: Effect of overcoming resistance EC50. From the text: After completion of culturing, the number of viable cells was counted by use of TetraColor ONE according to the manufacture's instruction manual.
Take `COc1ccc(/C(C#N)=C/c2ccc(N)s2)cc1OC` [Compound 3, (Z)-3-(5-amino-thiophen-2-yl)-2-(3,4-dimethoxy-phenyl)-acrylonitrile]: the EC50 was over 5 µg/mL. Take `COc1ccc(/C(C#N)=C/c2ccc(N3CCCCC3)s2)cc1OC` [Compound 4, (Z)-2-(3,4-dimethoxy-phenyl)-3-(5-piperidin-1-yl-thiophen-2-yl)-acrylonitrile]: the EC50 was over 5 µg/mL. For `COc1ccc(/C(C#N)=C/c2ccc(N3CCC(OP(=O)([O-])[O-])CC3)s2)cc1OC.[Na+].[Na+]` [Compound 17, mono-(1-{5-[(Z)-2-cyano-2-(3,4-dimethoxy-phenyl)-vinyl]-thiophen-2-yl}-piperidin-4-yl)phosphate sodium salt], the EC50 is over 5 µg/mL. As to `COc1ccc(/C(C#N)=C/c2ccc(N3CCC(OP(=O)([O-])[O-])CC3)o2)cc1OC.[Na+].[Na+]` [Compound 53, mono-(1-{5-[(Z)-2-cyano-2-(3,4-dimethoxy-phenyl)-vinyl]-furan-2-yl}-piperidin-4-yl)phosphate sodium salt], the EC50 is over 5 µg/mL. Take `COc1ccc(/C=C(\C#N)c2cccs2)cc1OC` [Compound 55, (E)-3-(3,4-dimethoxy-phenyl)-2-thiophen-2-yl-acrylonitrile]: the EC50 is over 5 µg/mL.

Still in this assay, the particulars now being: concentration for 50% reduction of relative paclitaxel resistance value; K562/MDR vs K562; 72 hours.
In the case of `COc1ccc(/C(C#N)=C/c2ccc(N3CCC(OC(=O)CCC(=O)O)CC3)s2)cc1OC` [Compound 18, mono-(1-{5-[(Z)-2-cyano-2-(3,4-dimethoxy-phenyl)-vinyl]-thiophen-2-yl}-piperidin-4-yl)succinate], the “Effect of overcoming resistance EC50” value was over 5 µg/mL. With `COc1ccc(/C(C#N)=C/c2ccc(N3CCC(OP(=O)(O)O)CC3)o2)cc1OC` [Compound 52, mono-(1-{5-[(Z)-2-cyano-2-(3,4-dimethoxy-phenyl)-vinyl]-furan-2-yl}-piperidin-4-yl)phosphate], the “Effect of overcoming resistance EC50” value is over 5 µg/mL.
